Assay [1] concerns primed macrophage cells. The assay can be described thus: cytokine TNFα response of primed macrophage cells. The class given is cell-based. To be noted: added alone to primed macrophage cells.
Protocol: Macrophage cells were then matured to a point where they were primed and ready to respond to an input. Adding varying levels of LPS and measuring the cytokine TNFα response confirmed the maturity and readiness of the macrophage cells.
A variety of different honeys were then added to the primed macrophage cells and the cytokine response measured to determine if there were any trends. ethylglyoxal (MGO) was also added with or without honey to determine if this ingredient of manuka honey also influenced the immune stimulation effects. A sugar solution was also used to determine if this had any effect as well.
Honey samples (5% (w/v) and LPS (1000 ng/mL) were prepared in water and heated at 80° C. for 30 min in a shaking water bath. After heat processing, further dilutions were performed in RPMI medium and the resulting honey tested for cytokine response.
Assay [2] deals with THP-1 cells. The assay can be described thus: TNF-α release/production from THP-1 cell line. Type of assay: cell-based. Particulars: FIG. 8, THP-1 cell line. The protocol:
In this example the ability of three New Zealand honeys to elicit the release of TNF-α from the monocytic cell lines THP-1 and U937 were investigated and the bioactive component responsible identified.
In this example, the effect or otherwise of pure AGP was analysed to determine how AGP influences cytokine stimulation as exemplified by TNF-α production from THP-1 cell line.
Varying doses of LPS were tested against THP-1 cell line and the cytokine response measured. […] The results further reinforce the presence of type II AG compounds and their influence on inflammation.

Regarding `CC(=O)C=O` [MGO, methylglyoxal], in assay [1], the “impact on immune stimulation (cytokine response)” value is reported as “no impact”. Besides, in assay [2], the pro-inflammatory response entry is “no significant pro-inflammatory response”.

For the origin of these results see patent publication US9827275B2, “Immunostimulatory compositions and methods of use thereof” (Comvita New Zealand Ltd., priority 2010, dated 2017).
